This is an account of results in ChEMBL document CHEMBL1287699, “N,N-Bis-(8-hydroxyquinoline-5-yl methyl)-benzyl substituted amines (HQNBA): peroxisome proliferator-activated receptor (PPAR-γ) agonists with neuroprotective properties” (Bioorg Med Chem Lett, 2010).

For data set [1], the system named is HT-22. Briefly: Neuroprotective activity in mouse HT22 cells assessed as protection against glutamate-induced toxicity after 24 hrs by MTT assay. The note with it: HT-22, 24 h. It counts as functional, cell-based.
Data set [2] concerns HT-22. Briefly: Neuroprotective activity in mouse HT22 cells assessed as protection against glutamate-induced toxicity at 0.5 to 1 uM after 24 hrs by MTT assay relative to control. The class given is functional. On the technique in general: Tetrazolium assays rely on reduction of a dye to a coloured formazan, in cell work by metabolically active cells.
Data set [3] is described as follows: Cytotoxicity against mouse hippocampal HT22 cells at 1 uM after 24 hrs by MTT assay. The class given is cell-based, Hippocampus. The conditions noted are these: ht-22, 24 h.
Data set [4] deals with HT-22. Nature of the data set: Neuroprotective activity in mouse HT22 cells assessed as protection against glutamate-induced toxicity at 1 uM after 24 hrs by MTT assay in presence of GW-9662. It counts as functional, cell-based.
The subject of data set [5] is HT-22. Nature of the data set: Inhibition of glutamate-induced decrease in GSH level in mouse HT22 cells at 1 uM after 24 hrs. The class given is functional, cell-based.

Calls of active or inactive are those of the source. No cut-off for these calls is given here.

As a reminder, the EC50 is the midpoint of the concentration-response curve. Turning to `Oc1ccc(CN(Cc2cccs2)Cc2ccc(O)c3ncccc23)c2cccnc12`, the EC50 in data set [1] was 383 nM. Besides, the “%max” value in data set [2] turned out to be 97%. In data set [3], this molecule showed an Activity of 34%. The result in data set [4] was inactive. Moreover, the outcome in data set [5] was Active.

As for `Oc1ccc(CN(Cc2cccc(C(F)(F)F)c2)Cc2ccc(O)c3ncccc23)c2cccnc12`, in data set [1], the EC50 is 168 nM. The “%max” value in data set [2] came out at 99%. In data set [3], this molecule gave an Activity of 40.7%. Further, the result in data set [4] was inactive. Further, in data set [5], the outcome was Active.

On to `Cc1c(C)c2c(c(C)c1O)CCC(C)(COc1ccc(CC3SC(=O)NC3=O)cc1)O2` (stereo not drawn), for which, in data set [5], the result was inactive.

For `COc1cc(/C=C/c2cc(/C=C/c3ccc(O)c(OC)c3)n(-c3ccccc3)n2)ccc1O`, the result in data set [4] was Active.

As for `Oc1ccc(CN(Cc2ccc(C(F)(F)F)cc2)Cc2ccc(O)c3ncccc23)c2cccnc12`, in data set [1], the EC50 worked out at 621 nM. The “%max” value in data set [2] was determined as 100%. The molecule also gave an Activity in data set [3] of 33.7%. In addition, in data set [4], the outcome was inactive. For the same molecule, the outcome in data set [5] was Active.

For `O=C(Nc1ccccc1)c1cc([N+](=O)[O-])ccc1Cl`, the outcome in data set [4] was inactive.

Consider `Cc1ccc(CN(Cc2ccc(O)c3ncccc23)Cc2ccc(O)c3ncccc23)cc1`, for which, in data set [1], the EC50 worked out at 125 nM. In addition, the “%max” value in data set [2] came to 100%. In data set [3], this molecule registered an Activity of 39.4%. The outcome in data set [4] was inactive. For the same molecule, in data set [5], the outcome was Active.
